Laboratory results: the NIST ThermoML archive (doi:10.1007/s10765-007-0223-x)

Test: xn = mol fraction of the nth substance listed
Details: 101 kPa, Liquid; for speed of sound: Single path-length method

COC(C)(C)C [2-methoxy-2-methylpropane] + Cc1ccccc1
Details	mass density [kg/m3]	speed of sound [m/s]
305.65 K, x1 = 0.053	848.195	–
305.65 K, x1 = 0.116	840.022	–
305.65 K, x1 = 0.199	829.282	–
305.65 K, x1 = 0.301	816.062	–
305.65 K, x1 = 0.371	807.159	–
305.65 K, x1 = 0.463	795.249	–
305.65 K, x1 = 0.61	776.592	–
305.65 K, x1 = 0.688	766.747	–
305.65 K, x1 = 0.797	752.961	–
305.65 K, x1 = 0.902	739.7	–
305.65 K, x1 = 0.943	734.343	–
305.65 K, x1 = 1	726.444	–
308.15 K, x1 = 0.053	845.842	1245.8
308.15 K, x1 = 0.116	837.654	1228.3
308.15 K, x1 = 0.199	826.891	1207.5
308.15 K, x1 = 0.301	813.64	1180.9
308.15 K, x1 = 0.371	804.72	1161.8
308.15 K, x1 = 0.463	792.78	1137.8
308.15 K, x1 = 0.61	774.07	1098.8
308.15 K, x1 = 0.688	764.201	1077.9
308.15 K, x1 = 0.797	750.369	1049
308.15 K, x1 = 0.902	737.069	1020.4
308.15 K, x1 = 0.943	731.692	1008
308.15 K, x1 = 1	723.763	990.99
310.65 K, x1 = 0.053	843.486	1235.2
310.65 K, x1 = 0.116	835.279	1217.6
310.65 K, x1 = 0.199	824.494	1196.7
310.65 K, x1 = 0.301	811.214	1170.1
310.65 K, x1 = 0.371	802.273	1150.9
310.65 K, x1 = 0.463	790.303	1126.8
310.65 K, x1 = 0.61	771.541	1087.7
310.65 K, x1 = 0.688	761.642	1066.9
310.65 K, x1 = 0.797	747.769	1037.9
310.65 K, x1 = 0.902	734.423	1009.1
310.65 K, x1 = 0.943	729.029	996.73
310.65 K, x1 = 1	721.069	979.62
313.15 K, x1 = 0.053	841.124	1224.5
313.15 K, x1 = 0.116	832.902	1207
313.15 K, x1 = 0.199	822.092	1186
313.15 K, x1 = 0.301	808.78	1159.3
313.15 K, x1 = 0.371	799.819	1140.1
313.15 K, x1 = 0.463	787.815	1115.9
313.15 K, x1 = 0.61	769.004	1076.7
313.15 K, x1 = 0.688	759.075	1055.9
313.15 K, x1 = 0.797	745.157	1026.8
313.15 K, x1 = 0.902	731.765	997.95
313.15 K, x1 = 0.943	726.353	985.49
313.15 K, x1 = 1	718.357	968.16
315.65 K, x1 = 0.053	838.757	1214
315.65 K, x1 = 0.116	830.517	1196.4
315.65 K, x1 = 0.199	819.682	1175.3
315.65 K, x1 = 0.301	806.341	1148.5
315.65 K, x1 = 0.371	797.359	1129.3
315.65 K, x1 = 0.463	785.32	1105
315.65 K, x1 = 0.61	766.457	1065.8
315.65 K, x1 = 0.688	756.499	1044.9
315.65 K, x1 = 0.797	742.532	1015.6
315.65 K, x1 = 0.902	729.096	986.8
315.65 K, x1 = 0.943	723.661	974.25
315.65 K, x1 = 1	715.636	956.8
318.15 K, x1 = 0.053	836.384	1203.4
318.15 K, x1 = 0.116	828.127	1185.8
318.15 K, x1 = 0.199	817.267	1164.7
318.15 K, x1 = 0.301	803.893	1137.8
318.15 K, x1 = 0.371	794.887	1118.5
318.15 K, x1 = 0.463	782.821	1094.2
318.15 K, x1 = 0.61	763.899	1054.8
318.15 K, x1 = 0.688	753.908	1033.8
318.15 K, x1 = 0.797	739.897	1004.6
318.15 K, x1 = 0.902	726.409	975.59
318.15 K, x1 = 0.943	720.958	963
318.15 K, x1 = 1	712.897	945.54
320.65 K, x1 = 0.053	834.008	1192.9
320.65 K, x1 = 0.116	825.73	1175.2
320.65 K, x1 = 0.199	814.847	1154.1
320.65 K, x1 = 0.301	801.438	1127
320.65 K, x1 = 0.371	792.407	1107.7
320.65 K, x1 = 0.463	780.31	1083.4
320.65 K, x1 = 0.61	761.327	1043.8
320.65 K, x1 = 0.688	751.303	1022.8
320.65 K, x1 = 0.797	737.246	993.5
320.65 K, x1 = 0.902	723.713	964.4
320.65 K, x1 = 0.943	718.237	951.77
320.65 K, x1 = 1	710.141	934.24
323.15 K, x1 = 0.053	831.624	1182.4
323.15 K, x1 = 0.116	823.329	1164.6
323.15 K, x1 = 0.199	812.42	1143.5
323.15 K, x1 = 0.301	798.979	1116.4
323.15 K, x1 = 0.371	789.92	1097
323.15 K, x1 = 0.463	777.787	1072.5
323.15 K, x1 = 0.61	758.745	1032.9
323.15 K, x1 = 0.688	748.686	1011.9
323.15 K, x1 = 0.797	734.592	982.48
323.15 K, x1 = 0.902	721	953.28
323.15 K, x1 = 0.943	715.503	940.59
323.15 K, x1 = 1	707.381	922.97
